Assay results reported in patent US20010005720A1, “METHOD OF TREATING CHRONIC P[…] SCARRING DISEASES” (U.S.A. AS REPRESENTED BY THE SECRETARY DEPARTMENT OF HEALTH …, priority 1995, published 2001).

Experiments:
normal mesangial cells [1] = assay: DNA synthesis by [3H]thymidine incorporation in normal mesangial cells; assay type: cell-based; conditions: day one (24 hours); PPS 5-100 μg/ml; 20% fetal bovine serum
Description: (§1) Normal mesangial cells (8) were plated in basal medium plus 20% fetal bovine serum (Gibco, Grand Island, N.Y.) in 24-well plates (Nunc, PGC Scientific Corp., Gaithersburg, Md.) at a density of 2−2.5×10^4 cells/well. At 24 hours the medium was discarded, cells were washed twice with PBS and incubated for 24-72 h in serum-free medium with 0.1% bovine serum albumin (RIA grade, Sicjma). The medium was replaced with fresh basal medium plus 20% fetal bovine serum with or without 5-100 μg/ml of PPS or compared to standard heparin (100 μg/ml). Cells of duplicate wells were trypsinized and counted in an Elzone® cell counter (Particle Data Inc., Elmhurst, Ill.) at days +3 and +5. In parallel wells, thymidine incorporation was determined by adding 1 μCi/well of [^3H] thymidine ([methyl-^3H] thymidine); 2.0 Ci/mM; DuPont NEN, Boston, Mass.). Counts were determined at day 1 or at day 3.

normal mesangial cells [2] = assay: Cell growth (cell counts) in normal mesangial cells; assay type: cell-based
Description: as §1

[3] = tested on: normal mesangial cell layers; assay: mRNA levels of selected molecules in normal mesangial cell layers exposed to PPS (reverse transcription); assay type: cell-based; conditions: PPS 100 μg/ml; day 1 compared with days 3 and 5
Source text: The control was β-actin, which was unchanged, consistent with the absence of proliferation in the treated cells.

GH transgenic mice = assay: GH transgenic mice, oral PPS sodium in drinking water; glomerular collagen by competitive PCR; assay type: in vivo, mouse; conditions: about 100 mg/kg, 10-12 weeks
Description: Six GH mice were treated for 10-12 weeks with oral PPS sodium (Elmiron®, Baker Norton Pharmaceuticals, Inc.) in their drinking water and six age-matched GH mice received tap water for the same duration. The amount of PPS sodium in the drinking water was about 100 mg/kg of animal body weight.
Glomeruli were isolated by microdissection in the presence of RNase inhibitors. The left kidney was perfused with saline followed by a collagenase solution containing soluble RNase inhibitors. The lower pole was removed prior to collagenase perfusion and snap frozen on dry ice for zymography. […]
Primers for mouse α1IV and α1I collagen, α smooth muscle cell actin, β-actin, laminin B1, tenascin, 92 kDa metalloproteinase and 72 kDa metalloproteinase mRNAs, and for bovine growth hormone genomic DNA, were synthesized on a PCR-Mate (Applied Biosystems, Foster City, Calif.). […] Primer specificity for mRNA was determined by omitting the reverse transcriptase enzyme. […] This permitted a rapid, non-quantitative assessment of mRNA levels. Thereafter, competitive PCR assays were utilized to measure α1IV collagen (and the ratio of α1IV collagen to GAPDH enzyme was calculated to normalize the data between animals), PDGF-B, α smooth muscle cell actin, β-actin, and laminin B1 cDNAs by constructing a cDNA mutant for each molecule, with a small internal deletion or a new restriction enzyme site. […]

Watanabe rabbits [4] = assay: Watanabe rabbits Study A: subcutaneous PPS, morphometry of aortic lesions; assay type: in vivo, rabbit
Description: Twelve Watanabe rabbits were divided into two groups of six each (Group A and Group B) and fed a high cholesterol diet (0.5% cholesterol). The animals of Group A were treated daily with normal saline subcutaneously, while the animals of Group B were treated daily with 10 mg/kg of PPS sodium (Elmiron®) subcutaneously.
Four of the PPS-treated animals (Group B) died prior to completion of the study, one on day 22 and three between day 80 and day 86. On day 89, the animals of Group A and the two remaining animals of Group B were euthanized and necropsied and their tissues evaluated, particularly sections from different major branches of the aorta.

Watanabe rabbits [5] = assay: Watanabe rabbits Study B: oral PPS in drinking water, aortic intima/media histology; assay type: in vivo, rabbit; conditions: oral about 30 mg/kg/day in drinking water
Description: Twenty Watanabe rabbits were divided into four groups of five each, Groups A through D. All of the rabbits were fed the same high cholesterol diet (0.5% cholesterol). The animals of Groups A and B were given tap water to drink, while the animals of Groups C and D were given tap water containing 0.5 mg/mL of PPS sodium (Elmiron®). Based on observations of pre-study water consumption by the animals, the total daily dose of PPS sodium consumed by each animal in the treatment groups was about 30 mg/kg.
The animals of Groups A and C were euthanized and necropsied on day 50 of the study and their aortae examined.
The rabbits of Groups B and D were euthanized and necropsied on day 64 of the study. The aortae of these groups were examined histologically and the respective cross-sectional areas of the intimal and medial layers in various aortal branches were measured.

[6] = Wardle 1992; cited from earlier work
smooth muscle cell = conditions: Paul et al. 1987; Wardle; cited from earlier work
[7] = Paul et al. 1987; Wardle; cited from earlier work
[8] = 10 mg/kg/day s.c., day 89, 0.5% cholesterol diet
[9] = PPS vs control, 10 mg/kg/day s.c., day 89
[10] = all aortal cross-sections examined, 10 mg/kg/day s.c.

## Pentosan polysulfate [PPS]
Normal mesangial cells [1]
  concentration at which the maximum dose-response plateaued (DNA synthesis, tritiated thymidine incorporation): 50 µg/mL
Normal mesangial cells [2]; PPS 100 μg/ml vs heparin 100 μg/ml, three and five days
  potency relative to native heparin on a molar basis (cell growth inhibition): roughly twice
Normal mesangial cells [2]; day three, PPS 5-100 μg/ml, 20% fetal bovine serum
  concentration of maximum inhibitory response (cell number): 25 µg/mL
[3]
  92 kDa enzyme activity increase: more than 50%
  TGF-β mRNA reduction: 50%
  type I collagen mRNA: substantially decreased
  type IV collagen mRNA: no changes
  β-actin mRNA (control): unchanged
GH transgenic mice
  mean type IV collagen/GAPDH ratio in glomeruli relative to untreated (control) group: less than half
  scarring-type collagen present in glomeruli vs untreated animals (confirmed by histology and immunofluorescent microscopy): considerably less
Watanabe rabbits [4]; 10 mg/kg daily subcutaneously, group of six, one on day 22, three between day 80 and 86, high cholesterol diet
  treated animals that died prior to completion of the study: Four
Watanabe rabbits [4]; [8]
  Plaque area, Abdominal Aorta: 0.04 cm^2
  Plaque area, Ascending Aorta: 0.59 cm^2
  Smooth Muscle Layer area, Abdominal Aorta: 0.303 cm^2
  Smooth Muscle Layer area, Ascending Aorta: 0.243 cm^2
  Smooth Muscle Layer area, Thoracic Aorta: 0.334 cm^2
  Smooth Muscle/Plaque, Abdominal Aorta: 7.58
  Smooth Muscle/Plaque, Ascending Aorta: 4.12
  Smooth Muscle/Plaque, Thoracic Aorta: 1.184
Watanabe rabbits [4]; 10 mg/kg/day s.c., high cholesterol diet
  plaque in cross-section of abdominal aorta (FIG. 11 photograph): almost no sign of plaque
Watanabe rabbits [4]; [9]
  Fold decrease in Plaque Size, Abdominal Aorta: 10.2×
  Fold decrease in Plaque Size, Ascending Aorta: 6.8×
  Fold decrease in Plaque Size, Thoracic Aorta: 2.5×
Watanabe rabbits [4]; [10]
  plaque deposits in comparison with control rabbits: much smaller
  ratio of smooth muscle layer to plaque, times higher than control rabbits: ≤ 6.8 times
Watanabe rabbits [5]; day 50, Group C vs Group A
  atherosclerotic plaque development in intima, visual, vs control: less atherosclerotic plaque development
Watanabe rabbits [5]; day 64, Group D vs Group B
  mean intimal cross-sectional area in each aortal branch vs untreated: substantially less
  ratio of intima to medial areas in every aortal branch vs untreated: lower
[6]
  anticoagulant potency relative to heparin: about one-fifteenth
  partial thromboplastin time: prolongs
Smooth muscle cell
  smooth muscle cell proliferation: inhibits
[7]
  hyperlipidemia: decreases
